Like-named read-outs stand apart in the source and are kept apart here.
Columns and labels:
[1] = system: MGC803 (human gastric carcinoma cells); type: cell-based; settings: 72 h
Text: (§1) A part of the compounds of the examples of the present disclosure were subjected to a tumor cell proliferation inhibition test by using an MTT method (e.g. Pharmacological Research Method of New Drug, 2007: 242-243, edited by Lu Qiujun).
(§2) A cell strain was selected from KYSE-150 (human esophageal squamous carcinoma cells), MGC803 (human gastric carcinoma cells), and SHG44 (human glioma cells), and frozen and passaged by a pharmacological laboratory of Shanghai Institute of Pharmaceutical Industry. A culture solution was DMEM+10% FBS+double antibody.
(§3) In-vitro activity test: 100 μL of a cell suspension at a concentration of 4-5×10^4/mL was added to each well of a 96-well plate, and placed in a 5% CO2 incubator at 37° C. After 24 h, a sample solution was added at 10 μL/well, double duplicate wells were set, and a reaction was performed at 37° C. with 5% CO2 for 72 h. 20 μL of 5 mg/ml of an MTT solution was added into each well and reacted for 4 h, a dissolving solution was added at 100 μL/well, the mixture was placed in an incubator, and after dissolution, an OD value at 570 nm was measured with a full-wavelength multifunctional microplate reader. An inhibition rate (IR) and a median inhibitory concentration (IC50) were calculated by using an Excel software.
(§4) The inhibition rate (IR %) of the drug on cell growth was calculated according to the following equation: […]

[2] = system: SHG44 (human glioma cells); type: cell-based; settings: 72 h
Text: as §1, §2, §3, §4

[3] = system: KYSE-150 (human esophageal squamous carcinoma cells); type: cell-based; settings: 72 h
Text: as §1, §2, §3, §4

[4] = In-vivo antitumor activity test in human stromal tumor SHG44 (subcutaneous tumor block in nude mice); parameters: species or system BALB/C nude mice; settings: SHG44; 10 mg/kg, Ipx5 each week for 2 continuous weeks; d22; in g (unit assumed)
Procedure: (§5) Animals: BALB/C nude mice (SPF grade), male, and 18-20 g. The compounds were firstly added with DMSO at a total amount of 4%, then added with Tween-80 at a total amount of 2% for assisting dissolution, then added with PEG300 at a total amount of 5%, and finally added with sterilized normal saline to be prepared into a solution at 1 mg/mL. Idasanutlin was firstly added with DMSO at a total amount of 4%, then added with Tween-80 at a total amount of 2% for assisting dissolution, then added with PEG300 at a total amount of 5%, and finally added with sterilized normal saline to be prepared into a solution at 2.5 mg/mL.
(§6) A well-grown human stromal tumor SHG44 mass was taken and aseptically cut into uniform small blocks of about 3 mm in size, and a right axilla of each mouse was subcutaneously inoculated with one block through a trocar. […] The animals were regrouped according to a tumor size. The animals with too large and too small tumors were sifted out. An average tumor volume in each group was approximately the same. An administration was started according to the following solution with an administration volume of 0.2 mL/20 g body weight. A long diameter a (mm) of the tumor and a short diameter b (mm) vertical to the tumor were measured by a digital display electronic caliper 2 times a week from day 9 of the inoculation. A tumor volume was calculated by the formula: TV=ab^2/2, and a relative tumor volume was calculated by the formula: RTV=Vt/Vo, wherein Vo was the obtained tumor volume measured at a cage separation (i.e. d1) and Vt was the tumor volume measured at each time. The animals were sacrificed 30 days after the inoculation (d22) and weighed, tumor mass was obtained by dissection and weighed, and the results were determined according to the following formula: […]

[5] = system: human gastric carcinoma MGC803; assay: In-vivo antitumor activity test in human gastric carcinoma MGC803 (subcutaneous tumor block in nude mice); parameters: species or system BALB/C nude mice; settings: MGC803; 10 mg/kg, Ipx5 each week for 2 continuous weeks; d22
Procedure: as §5
as §6, with “gastric carcinoma MGC803” for “stromal”, “tumor” for “tumor SHG44”

[6] = system: human esophageal cancer KYSE-150; assay: In-vivo antitumor activity test in human esophageal cancer KYSE-150 (subcutaneous tumor block in nude mice); parameters: species or system BALB/C nude mice; settings: KYSE-150; 10 mg/kg, Ipx5 each week for 2 continuous weeks; d22
Procedure: as §5
as §6, with “esophageal cancer KYSE-150” for “stromal”, “tumor” for “tumor SHG44”

[7] = system: HCT116 (human colon carcinoma cells); assay: Tumor cell proliferation inhibition test, CCK-8 method (Example 19); type: cell-based
Procedure: (§7) A part of the compounds prepared in the examples of the present disclosure were subjected to a tumor cell proliferation inhibition test by using a CCK-8 method. A cell line HCT116 (human colon carcinoma cells) and SW1990 (human pancreatic carcinoma cells) were purchased from Shanghai Meixuan Technology Co., Ltd. Samples (a part of the compounds prepared in the examples) were dissolved in DMSO (Merck), prepared into a concentration of 10 mM, and finally triply diluted in DMEM or McCoy's 5A 1640 medium to 8 concentration gradients. A cell culture solution was collected when a cell culture met a test requirement, 10 μL of the cell culture solution was uniformly coated on a cell counting plate, cells were counted for 3 times under a microscope, and a cell density was calculated by taking an average value; and a 96-well plate (Corning, #3599) was taken, 200 μL of the cell culture solution was added into each well for cell inoculation at a cell concentration of 6×10^3 cells per well, and the inoculated 96-well plate was incubated in a cell incubator containing 5% CO2 at 37° C. for 24 h. An old culture medium was removed by suction, 200 μL of the triply diluted sample DMEM or McCoy's 5A 1640 medium at an initial concentration of 10 μmol/L was added to each well, the DMSO content was controlled to be 1%, three duplicate wells were set, PBS was used as a blank control, and the plate was incubated in the incubator for 72 h. The original DMEM or McCoy's 5A 1640 medium in the 96-well plate and a PBS buffer in a final row were sucked out, a prepared CCK-8 solution (90% DMEM or McCoy's 5A 1640 medium+10% CCK-8) was added, the mixture was incubated in an incubator, and an absorbance was read by using a Biotek microplate reader. Cell growth inhibition rate IC %=(blank control well OD value−administration well OD value)/blank control well OD value×100%.

[8] = system: SW1990 (human pancreatic carcinoma cells); assay: as above; type: cell-based
Procedure: as §7

Row | SMILES | IC50 [1] [µM] | IC50 [2] [µM] | IC50 [3] [µM] | Body weight of animals (After a tumor is removed) [4] | Body weight of animals (After a tumor is removed) [5] | Body weight of animals (After a tumor is removed) [6] | IC50 ([7]; 72 h) [µM] | IC50 ([8]; 72 h) [µM] | IC50 ([1]; MTT, Table 2, read-out: IC50 MGC803) [µM] | IC50 ([2]; MTT, Table 2, read-out: IC50 SHG44) [µM] | IC50 ([3]; MTT, Table 2, read-out: IC50 KYSE-150) [µM] | IC50 ([7]; CCK-8, 72 h, Table 1, read-out: IC50 HCT116) [µM] | IC50 ([8]; CCK-8, 72 h, Table 1, read-out: IC50 SW1990) [µM]
1 | COc1cc(C(=O)NCCOCCOCCOCCOCCC(=O)N[C@@H](C(=O)N[C@@H](CCCNC(N)=O)C(=O)Nc2ccc(COC(=O)N3CCC(NC(=O)O[C@H]4CC[C@]5(C)C6CC[C@]7(C)[C@@H](c8ccc(=O)oc8)CC[C@]7(O)C6CC[C@@H]5C4)CC3)cc2)C(C)C)ccc1NC(=O)[C@@H]1N[C@@H](CC(C)(C)C)[C@](C#N)(c2ccc(Cl)cc2F)[C@H]1c1cccc(Cl)c1F (stereo partly shown) [Compound I-4] | 1.67 | 0.319 | 1.06 | 26.10 ± 2.00 | 24.95 ± 1.62 | 24.99 ± 1.48 | 0.728 | 0.576 |  |  |  |  | 
2 | COc1cc(C(=O)NCCOCCOCCOCCOCCC(=O)N[C@@H](C(=O)N[C@@H](CCCNC(N)=O)C(=O)Nc2ccc(COC(=O)NC3=C(C)C(=O)C4=C(C3=O)[C@@H](COC(N)=O)[C@@]3(OC)[C@H]5N[C@H]5CN43)cc2)C(C)C)ccc1NC(=O)[C@@H]1N[C@@H](CC(C)(C)C)[C@](C#N)(c2ccc(Cl)cc2F)[C@H]1c1cccc(Cl)c1F [Compound I-6] |  |  |  |  |  |  |  |  | > 50 | > 50 | 19.4 | 0.542 | > 50
3 | COc1cc(C(=O)NCCOCCOCCOCCOCCC(=O)NCC(=O)NCC(=O)N[C@@H](Cc2ccccc2)C(=O)NCC(=O)Nc2ccc(COC(=O)N3CCN(C(=O)O[C@H]4CC[C@@]5(C)[C@H](CC[C@@H]6[C@@H]5[C@H](O)C(=O)[C@]5(C)[C@@H](c7ccc(=O)oc7)CC[C@]65O)C4)CC3)cc2)ccc1NC(=O)[C@@H]1N[C@@H](CC(C)(C)C)[C@](C#N)(c2ccc(Cl)cc2F)[C@H]1c1cccc(Cl)c1F [Compound I-16] | 0.402 | 0.041 | 0.243 | 25.13 ± 0.97 |  |  | 0.21 | 0.022 |  |  |  |  | 
4 | COc1cc(C(=O)NCCOCCOCCOCCOCCC(=O)NCC(=O)NCC(=O)N[C@@H](Cc2ccccc2)C(=O)NCC(=O)Nc2ccc(COC(=O)N3CCC(NC(=O)O[C@H]4CC[C@]5(C)C6CC[C@]7(C)[C@@H](c8ccc(=O)oc8)CC[C@]7(O)C6CC[C@@H]5C4)CC3)cc2)ccc1NC(=O)[C@@H]1N[C@@H](CC(C)(C)C)[C@](C#N)(c2ccc(Cl)cc2F)[C@H]1c1cccc(Cl)c1F (stereo partly shown) [Compound I-17] | 1.62 | 0.204 | 1.89 | 25.60 ± 0.98 |  |  | 0.898 | 0.287 |  |  |  |  | 

Reference: US20240024494A1, “SMALL-MOLECULE CONJUGATE AND USE THEREOF” (SHANGHAI MEWSGEN BIOTECHNOLOGY CO., LTD, priority 2020, published 2024)
